In patent publication US20080081835A1, “Use of Ltb4 Inhibitors for the Treatment of B-Cell Leukemias and Lymphomas” (priority 2004, published 2008):

Columns and labels:
[1] = system: human lung cancer cells; conditions: cited from earlier work
[2] = system: serum proteins; conditions: Can. J. Physiol. Pharmacol. 67, 456 (1989); cited from earlier work
[3] = system: malignant cells from patients with acute or chronic myelogenous leukemia; conditions: cited from earlier work
[4] = system: B-CLL cells; assay: DNA synthesis (3H-thymidine incorporation) in B-CLL cells activated by CD40L-L cells, 96 hr co-culture; assay type: cell-based, human
Protocol: FIG. 3 depicts the effects of leukotriene biosynthesis inhibitors on CD40L-induced thymidine incorporation in B-CLL cells. B-CLL cells (2×10^5) were co-cultured with either irradiated L cells alone (L), irradiated CD40L-L cells or irradiated CD40L-L cells plus indicated inhibitor for 96 hr. When inhibitors were used, B-CLL cells were pre-treated with the inhibitor for 30 min prior co-culturing with L cells or CD40L-L cells. The inhibitors used were: […]. The control result reported in the Figure represents B-CLL cells co-cultured with irradiated CD40L-L cells alone. ^3H-thymidine (1 μCi) was present for the final eight hours. Activation of B-CLL cells with CD40L-L treatment led to between 3580 and 15369 cpm (^3H-thymidine) incorporation (control) in different experiments. This was set as 100% in each experiment. […] Student's t-test was used to calculate statistics i.e. control vs. control plus indicated compound(s) (** P<0.01, *** P<0.001). B-cells were isolated from patients suffering with B-CLL or B-prolymphocytic leukemia (B-PLL) who had not received chemotherapy within during the previous six weeks (see Table 1 below). Peripheral blood samples were obtained after informed consent and with local ethics committee approval. Blood samples were Ficoll-Isopaque purified and washed twice in phosphate buffered saline (PBS). After that, cells were either frozen in PBS with 50% human AB serum and 10% dimethylsulfoxide or analyzed fresh. Frozen cell samples were thawed and washed in ice cold fetal calf serum and subsequently in PBS before analysis. Cells from two patients were used twice, both freshly isolated cells and after freezing with similar results. […]. The purity of the isolated cells was estimated by flow cytometric analysis (with FACS Calibur, Becton Dickinson, Mountain View, Calif.). Morphological analysis was performed after staining with May-Grunewald/Giemsa solution. The purity of B-CLL and B-PLL cells was >98%. Purified B-CLL cells were cultured in RPMI 1640 medium, supplemented with 10% FCS, 2 mM L-glutamine, 100 U/mL penicillin and 100 μg/mL streptomycin and incubated at […] in an atmosphere of 5% CO2. 2×10^5 of B-CLL cells were seeded in 200 μL medium in 96-well plates. B-CLL cells were pretreated with MK-886 (a specific FLAP inhibitor) (10^−6 to 10^−9 M) or BWA4C (a specific 5-LO inhibitor) (10^−7 to 10^−9 M) for 30 min, before co-culturing with irradiated (15,000 Rad) CD40L expressing L (CD40L-L) cells or control L (L) cells in the presence of inhibitors. LTB4 (10^−7 M) was present in the indicated cultures. Each sample was represented by triplicates. 1 μCi ^3H-thymidine was present in the wells for the final eight […] of the 96 hr cultures. The cells were harvested onto glass fibre filter and radioactivity was measured in a liquid scintillation counter.

[5] = system: B-CLL cells; assay: Flow cytometry (FACS) analysis of CD23, CD54 and CD150 expression in CD40L activated B-CLL cells; assay type: cell-based, human; conditions: for effect on CD40-induced increased expression of CD23, CD54 and CD150: 100 nM, 96 hrs
Protocol: FIG. 4 depicts the effects of leukotriene biosynthesis inhibitors on the expression of CD23, CD54 and CD150 in CD40L activated B-CLL. Purified B-CLL cells were co-cultured with either L cells or CD40L-L cells in the absence or presence of MK886 (10^−7 M), BWA4C (10^−7 M), and/or LTB4 (10^−7 M) for 96 hrs. When inhibitors were used, B-CLL cells were pre-treated with the inhibitor for 30 min prior to co-culturing with L cells or CD40L-L cells. B-CLL cells were collected and analysed by FACS with antibodies against CD23, CD54 or CD150. The figure depicts one typical experiment out of six. […] Cultured (described above) B-CLL cells were collected (without the plastic attached L cells) and used for FACS detection. Surface marker expression was detected by indirect immunofluorescence. One million cells/sample were washed in cold PBS containing 1% FCS and 0.1% sodium azide and then exposed to the relevant antibodies. The cells were washed and incubated with the RPE conjugated secondary antibody. All incubations were done at 4° C. Samples were run on a Becton Dickinson FACScan flow cytometer (Becton Dickinson, Mountain View, Calif.). The CellQuest software (Becton Dickinson) was used both for acquisition and analysis of the samples. Ten thousand events were collected on a FACScan flow cytometer, and the results were analysed using CellQuest (Becton Dickinson) software. Only the viable cells were considered for analysis based on their light scatter (FSC/SSC) characteristics. The following antibodies were used: MAb MHM-6 (anti-CD23, from Dr. M. Rowe, University of Wales, Cardiff, Wales, UK), MAb LB-2 (anti-CD54, from E. A. Clark, University of Washington, Seattle, Wash.), MAb IPO-3 (anti-SLAM, kind gift from S. Sidorenko, Acad. of Science of Ukraine, Kiev, Ukraine) and RPE conjugated rabbit anti-mouse Ig F(ab′)2 (Dako, Copenhagen, Denmark) were used as secondary antibody.

[6] = system: B-CLL cells; assay: Biosynthesis of LTB4 by intact B-CLL cells (HPLC analysis); assay type: cell-based, human; conditions: intact cells preincubated with diamide (100 μM, two minutes), then A23187 (1 μM) and arachidonic acid (40 μM); mean of six experiments; without diamide 2.6±0.8
Protocol: pre-incubated (intact cells) with diamide (100 μM) for two minutes, followed by stimulation with A23187 (1 μM) and arachidonic acid (40 μM).
10×10^6 cells were suspended in 1 mL PBS and pre-incubated for two minutes with/without azodicarboxylic acid bis(dimethylamide), abbreviated diamide, (100 μM) prior to stimulation with arachidonic acid (40 μM) and/or calcium ionophore A23187 (1 μM). The cells were stimulated for five minutes at 37° C. and the incubations were terminated with 1 mL methanol.
After addition of 0.5 ml PBS and the internal standard PGB1 (100 pmol) to the samples, the cells were centrifuged (2500 rpm, 5 min). The supernatant was subsequently subjected to solid phase extraction on Chromabond C18 columns (200 mg, Macherey & Nagel). The methanol eluate was analysed on Waters Alliance 2695 reverse phase HPLC and detected with Waters PDA 996. Methanol:water:trifiuoroacetic acid (70:30:0.007, v/v) was used as mobile phase at a flow rate of 1.2 mL/min. Qualitative analysis was performed by comparison of retention times of synthetic standards and quantitative determinations were performed by computerized integration of the area of eluted peaks.

CC(C)c1ccc2c(c1)c(SC(C)(C)C)c(CC(C)(C)C(=O)O)n2Cc1ccc(Cl)cc1 [MK-886]
antiproliferative effects [1]: antiproliferative effects
binding to serum proteins [2]: relatively high binding
antiproliferative effects [3]: antiproliferative effects
effect on DNA synthesis induced by CD40-ligand stimulation ([4]; 100 nM): markedly inhibited DNA synthesis
inhibition at 0.1 µM ([4]; Homo sapiens, 100 nM inhibitor, CD40L-L stimulated B-CLL cells, 96 hr, read-out: inhibitory action on thymidine incorporation): 38%
inhibition at 1 µM ([4]; Homo sapiens, 1 μM inhibitor, CD40L-L stimulated B-CLL cells, 96 hr, read-out: inhibitory action on thymidine incorporation): 46%
effect on CD40-induced increased expression of CD23, CD54 and CD150 [5]: markedly counteracted

CC(=O)N(O)C/C=C/c1cccc(Oc2ccccc2)c1 [BWA4C]
effect on thymidine incorporation ([4]; 10 nM): significant inhibitory effect
potency to block DNA synthesis compared with MK-886 ([4]; FIG. 3B): even more potent inhibitor than MK-886
effect on CD40-induced increased expression of CD23, CD54 and CD150 [5]: markedly counteracted

CN(C)C(=O)/N=N/C(=O)N(C)C [diamide, Azodicarboxylic acid bis(dimethylamide)]
production of LTB4 [6]: 33.5±1.2 pmol/10^6 cells

CCCCC/C=C\C[C@@H](O)/C=C/C=C/C=C\[C@@H](O)CCCC(=O)O [LTB4]
reversal of the inhibitory action of 100 nM BWA4C on thymidine incorporation ([4]; exogenous addition, 150 nM): almost completely reversed
reversal of the inhibitory effect of MK-886 on thymidine incorporation ([4]; exogenously added, 150 nM): almost completely reversed
effect on CD40-induced thymidine incorporation, alone ([4]; final concentration 150 nM, no inhibitor): did not amplify
reversal of the inhibitory effect of the inhibitors (MK-886, BWA4C) on antigen expression ([5]; 150 nM): almost completely reversed
effect alone on the expression of CD23, CD54 and CD150 ([5]; without inhibitor): did not cause any significant effect
